Test results taken from patent publication US20220387604A1, “SELECTIVE DUAL HISTONE DEACETYLASE 6/8 (HDAC6/8) DEGRADERS AND METHODS OF USE THEREOF” (DANA-FARBER CANCER INSTITUTE, INC., priority 2019, published 2022).

Experiments:
HDAC6/8 = assay: Quantitative proteomics of cellular protein abundance in Kelly cells: HDAC6/8; type: cell-based, human; conditions: for change of cellular HDAC6/8 protein levels (heat map FIG. 3): 1 μM, 5 hours, compared to DMSO control; for reduction in HDAC6/8 protein levels compared to DMSO treated cells: moderated t-test, scatter plots FIG. 2A-2C, 4A-4B
Experimental: Lysis buffer (8 M Urea, 50 mM NaCl, 50 mM 4-(2hydroxyethyl)-1-piperazineethanesulfonic acid (EPPS) pH 8.5, protease and phosphatase inhibitors from Roche®) were added to the cell pellets and homogenized by 20 passes through a 21 gauge (1.25 in. long) needle to achieve a cell lysate with a protein concentration between 1-4 mg mL^−1. A micro-BCA assay (Pierce™) was used to determine the final protein concentration in the cell lysate. 200 μg of protein for each sample were reduced and alkylated as described in Donovan et al., Elife 7:e38430 (2018).
Proteins were precipitated using methanol/chloroform. Four volumes of methanol were added to the cell lysate, followed by one volume of chloroform, and finally three volumes of water. The mixture was vortexed and centrifuged to separate the chloroform phase from the aqueous phase. The precipitated protein was washed with three volumes of methanol, centrifuged and the resulting washed precipitated protein was allowed to air dry. The precipitated protein was resuspended in 4 M Urea, 50 mM HEPES pH 7.4, followed by dilution to 1 M urea with the addition of 200 mM EPPS, pH 8. Proteins were first digested with LysC (1:50; enzyme:protein) for 12 hours at room temperature. The LysC digestion was diluted to 0.5 M Urea with 200 mM EPPS pH 8 followed by digestion with trypsin (1:50; enzyme:protein) for 6 hours at 37° C. Tandem mass tag (TMT) reagents (Thermo Fisher Scientific) were dissolved in anhydrous acetonitrile (ACN) according to manufacturer's instructions.
Anhydrous ACN was added to each peptide sample to a final concentration of 30% v/v, and labeling was induced with the addition of TMT reagent to each sample at a ratio of 1:4 peptide:TMT label. The 10-plex labeling reactions were performed for 1.5 hours at room temperature and the reaction quenched by the addition of hydroxylamine to a final concentration of 0.3% for 15 minutes at room temperature. The sample channels were combined at a 1:1:1:1:1:1:1:1:1:1:1 ratio, desalted using C18 solid phase extraction cartridges (Waters®) and analyzed by LC-MS for channel ratio comparison. Samples were then combined using the adjusted volumes determined in the channel ratio analysis and dried down in a speed vacuum. The combined sample was then resuspended in 1% formic acid, and acidified (pH 2-3) before being subjected to desalting with C18 SPE (Sep-Pak®, Waters®). Samples were then offline fractionated into 96 fractions by high pH reverse-phase HPLC (Agilent® LC1260) through an aeris peptide xb-c18 column (Phenomenex®) with mobile phase A containing 5% acetonitrile and 10 mM NH4HCO3 in LC-MS grade H2O, and mobile phase B containing 90% acetonitrile and 10 mM NH4HCO3 in LC-MS grade H2O (both pH 8.0). The 96 resulting fractions were then pooled in a non-continuous manner into 24 fractions and these fractions were used for subsequent mass spectrometry analysis.
Data were collected using an Orbitrap Fusion™ Lumos™ mass spectrometer (Thermo Fisher Scientific, San Jose, Calif., USA) coupled with a Proxeon EASY-nLC™ 1200 LC pump (Thermo Fisher Scientific). Peptides were separated on an EasySpray™ ES803 75 μm inner diameter microcapillary column (ThermoFisher Scientific).
Each analysis used an MS3-based TMT method as described in McAlister et al., Anal. Chem. 86(14):7150-7158 (2014). The data were acquired using a mass range of m/z 340-1350, resolution 120,000, automatic gain control (AGC) target 1×10^6, maximum injection time 100 ms, dynamic exclusion of 120 seconds for the peptide measurements in the Orbitrap Fusion™ Lumos™ mass spectrometer. Data dependent MS2 spectra were acquired in the ion trap with a normalized collision energy (NCE) set at 55%, AGC target set to 1.5×10^5 and a maximum injection time of 150 ms. […]

[1] = biological target: T1, full length human HDAC8-EGFP (Homo sapiens, UniProt Q9BY41); assay: HDAC8 reporter assay (HDAC8-EGFP with mCherry reporter); type: cell-based; conditions: 5 hour treatment, FIG. 6; hook effect at higher concentrations
T1 construct: Cells stably expressing the full length human HDAC8-EGFP with mCherry reporter; expressed in transfected cells; Cilantro2 vector (Addgene, 74450)
T1 sequence (Q9BY41 1-377): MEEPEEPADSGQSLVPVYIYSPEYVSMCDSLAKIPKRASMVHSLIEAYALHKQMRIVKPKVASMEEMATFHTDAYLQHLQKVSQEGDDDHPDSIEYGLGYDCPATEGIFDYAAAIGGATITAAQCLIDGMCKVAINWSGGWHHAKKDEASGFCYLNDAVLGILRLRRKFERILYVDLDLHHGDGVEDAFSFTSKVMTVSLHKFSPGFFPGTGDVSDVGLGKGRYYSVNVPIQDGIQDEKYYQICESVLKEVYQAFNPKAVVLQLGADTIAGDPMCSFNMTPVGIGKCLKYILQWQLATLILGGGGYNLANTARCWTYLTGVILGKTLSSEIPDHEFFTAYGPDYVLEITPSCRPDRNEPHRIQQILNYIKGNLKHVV
Experimental: Cells stably expressing the full length human HDAC8-EGFP with mCherry reporter in Cilantro2 vector (Addgene, 74450) were seeded at 30-50% confluency in 384-well plates with 50 μL FluoroBrite™ DMEM media (Thermo Fisher Scientific, A18967) containing 10% FBS per well a day before compound treatment. Compounds were dispensed using a D300e Digital Dispenser (HP), normalized to 0.5% DMSO, and incubated with cells for 5 hours. The assay plate was imaged immediately using an Acumen® High Content Imager (TTP Labtech) with 488 nm and 561 nm lasers in […] per well format. The resulting images were analyzed using CellProfiler™.
A series of image analysis steps (‘image analysis pipeline’) was constructed. First, the red and green channels were aligned and cropped to target the middle of each well (to avoid analysis of heavily clumped cells at the edges), and a background illumination function was calculated for both red and green channels of each well individually and subtracted to correct for illumination variations across the 384-well plate from various sources of error. An additional step was then applied to the green channel to suppress the analysis of large auto fluorescent artifacts and enhance the analysis of cell specific fluorescence by way of selecting for objects under a given size, 30 A.U., and with a given shape, speckles. mCherry-positive cells were then identified in the red channel filtering for objects between 8-60 pixels in diameter and using intensity to distinguish between clumped objects. The green channel was then segmented into GFP positive and negative areas and objects were labeled as GFP positive if at least 40% of it overlapped with a GFP positive area. The fraction of GFP-positive cells/mCherry-positive cells in each well was then calculated, and the green and red images were rescaled for visualization. The values for the concentrations that lead to a 50% degradation (DC50) were calculated using the nonlinear fit variable slope model in GraphPad Prism software.

Structure (SMILES)	change of cellular HDAC6/8 protein levels (heat map FIG. 3) (HDAC6/8)	reduction in HDAC6/8 protein levels compared to DMSO treated cells (HDAC6/8)	degradation of GFP tagged HDAC8 in the reporter cell lines [1]
O=C(/C=C/c1ccc(CN(CCOCCOCCNc2cccc3c2C(=O)N(C2CCC(=O)NC2=O)C3=O)CCc2c[nH]c3ccccc23)cc1)NO (stereo not drawn) [Compound 1, (E)-3-(4-(((2-(1H-indol-3-yl)ethyl)(2-(2-(2-((2-(2,6-dioxopiperidin-3-yl)-1,3-dioxoisoindolin-4-yl)amino)ethoxy)ethoxy)ethyl)amino)methyl)phenyl)-N-hydroxyacrylamide]	induced down-regulation	significant reduction	degradation of GFP tagged HDAC8
O=C(/C=C/c1ccc(CN(CCCCCNc2cccc3c2C(=O)N(C2CCC(=O)NC2=O)C3=O)CCc2c[nH]c3ccccc23)cc1)NO (stereo not drawn) [Compound 3, (E)-3-(4-(((2-(1H-indol-3-yl)ethyl)(5-((2-(2,6-dioxopiperidin-3-yl)-1,3-dioxoisoindolin-4-yl)amino)pentyl)amino)methyl)phenyl)-N-hydroxyacrylamide]	induced down-regulation	significant reduction	degradation of GFP tagged HDAC8
O=C(/C=C/c1ccc(CN(CCOCCNc2cccc3c2C(=O)N(C2CCC(=O)NC2=O)C3=O)CCc2c[nH]c3ccccc23)cc1)NO (stereo not drawn) [Compound 2, (E)-3-(4-(((2-(1H-indol-3-yl)ethyl)(2-(2-((2-(2,6-dioxopiperidin-3-yl)-1,3-dioxoisoindolin-4-yl)amino)ethoxy)ethyl)amino)methyl)phenyl)-N-hydroxyacrylamide]	induced down-regulation	significant reduction	degradation of GFP tagged HDAC8
